One assay deals with T1, ICE (Homo sapiens, UniProt P29466).
T1 sequence (P29466 120-297 limits assumed): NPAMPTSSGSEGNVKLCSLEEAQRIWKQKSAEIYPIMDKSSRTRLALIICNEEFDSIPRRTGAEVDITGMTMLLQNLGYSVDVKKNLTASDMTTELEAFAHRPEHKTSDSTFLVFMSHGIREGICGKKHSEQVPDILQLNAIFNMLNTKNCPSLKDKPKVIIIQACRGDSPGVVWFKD
T1 sequence (P29466 317-404 limits assumed): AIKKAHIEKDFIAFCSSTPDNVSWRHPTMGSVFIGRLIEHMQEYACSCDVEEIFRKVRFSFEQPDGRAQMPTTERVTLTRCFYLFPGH
Put plainly: Enzyme assay with UV-visible substrate (visible ICE assay, Succinyl-Tyr-Val-Ala-Asp-pNitroanilide). The class given is biochemical. An outline of the steps:
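Human ICE was preincubated with inhibitor in DMSO and buffer for 15 min at room temperature, then succinyl-Tyr-Val-Ala-Asp-pNA was added. pNA release was followed at 405-603 nm for 20 min at 37° C. Ki and inhibition mode came from fitting rates to standard kinetic equations.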

Another assay relates to IL-1β, human whole blood. Put plainly: Whole blood assay for IL-1β production. Type of assay: cell-based. To be noted: read-out: Whole human blood IC50. An outline of the steps:
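Human whole blood collected on Na2EDTA was treated with serially diluted compound in saline and then stimulated with LPS at 5.0 ng/ml final, for 16-18 h at 30 °C, in duplicate or triplicate. Plasma IL-1β was measured by ELISA at 1:200 dilution.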

Assay [1] deals with IL-1β, human peripheral blood mononuclear cells (PBMC). The assay is described as follows: PBMC cell assay: IL-1β assay with human PBMC or enriched adherent mononuclear cells, LPS-stimulated. Type of assay: cell-based. An outline of the steps: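 Buffy-coat human PBMC at 6×10^6 cells/ml, or adherent monocytes enriched by 1 h adherence (2.5−3.0×10^5 cells/well), are given 5–6 compound dilutions bracketing the ICE Ki (final DMSO 0.1%) plus LPS at a final 5 ng/ml. They are incubated 16–18 hr at 37 °C, 5% CO2, and supernatant mature IL-1β is measured by ELISA, with duplicate cultures and duplicate ELISAs.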

Where [2] appears, read: Homo sapiens, * = values obtained upon reassay.
Setting [3] is: * = values obtained upon reassay.
The mark [4] stands for this setting: Homo sapiens, PBMC, * = values obtained upon reassay.

Like-named read-outs stand apart in the source and are kept apart here.

Turning to `COCC(=O)N1C[C@H](NCc2ccc3ccccc3c2)C(=O)N(CC(=O)N[C@H](C=O)CC(=O)O)c2ccccc21` [Compound 640, (3S)-3-[(3S)-2-Oxo-3-(2-naphthylmethylene)amino-5-methoxyacetyl-2,3,4,5-tetrahydro-1H-1,5-benzodiazepine-1-acetylamino]-4-oxo-butyric acid], the Ki on ICE (Table 17) was 155 nM. The IC50 in the assay with IL-1β, human whole blood (Homo sapiens, Table 17) worked out at 3900 nM; in assay [1] (Homo sapiens, PBMC, Table 17), 2250 nM.
On the same counts, the results for `COc1c(C)cc(C(=O)N[C@H]2CN(C(=O)CO)c3ccccc3N(CC(=O)N[C@H](C=O)CC(=O)O)C2=O)cc1C` [Compound 694, (3S)-3-[(3S)-2-Oxo-3-(3,5-dimethyl-4-methoxybenzoyl)amino-5-hydroxyacetyl-2,3,4,5-tetrahydro-1H-1,5-benzodiazepine-1-acetylamino-]4-oxo-butyric acid] are 3 nM, 2100 nM and 2600 nM.
On the same counts, the results for `COc1c(C)cc(C(=O)N[C@H]2CN(C(C)=O)c3ccccc3N(CC(=O)N[C@H](C=O)CC(=O)O)C2=O)cc1C` [Compound 684, (3S)-3-[(3S)-2-Oxo-3-(3,5-dimethyl-4-methoxybenzoyl)amino-5-acetyl-2,3,4,5-tetrahydro-1H-1,5-benzodiazepine-1-acetylamino]-4-oxo-butyric acid] are 15 nM, 2800 nM and 5000 nM.
Turning to `CNC(=O)Nc1ccc(C(=O)N[C@H]2CCC(=O)N3CCC[C@@H](C(=O)N[C@H](C=O)CC(=O)O)N3C2=O)cc1` [Compound 489], the affinity on ICE (Table 5) corresponds to a Ki of 6 nM. The IC50 in the assay with IL-1β, human whole blood (setting [2]) amounted to 15000 nM; in assay [1] (setting [3]), 1700 nM; in assay [1] (setting [4]) it was 2250 nM.
The molecule `CC(=O)N1C[C@H](NC(=O)C(=O)c2c[nH]c3ccccc23)C(=O)N(CC(=O)N[C@H](C=O)CC(=O)O)c2ccccc21` [Compound 703] came in with a Ki at ICE (Table 17) of 5 nM. In addition, the IC50 was 20000 nM with IL-1β, human whole blood (Homo sapiens, Table 17) and 1400 nM in assay [1] (Homo sapiens, PBMC, Table 17).
With `O=C(O)CC(NC(=O)[C@@H]1CCCN2C(=O)CC[C@H](NC(=O)c3ccccc3)C(=O)N12)C(=O)COCc1ccccc1Cl` (stereo partly drawn) [Compound 227e], affinity at ICE (Table 5) was put at a Ki of 7 nM. Also, the IC50 with IL-1β, human whole blood (setting [2]) was found to be 550 nM; in assay [1] (setting [4]), 234 nM.
Regarding `O=C[C@H](CC(=O)O)NC(=O)CN1C(=O)[C@@H](NC(=O)c2ccc3[nH]cnc3c2)CN(C(=O)CO)c2ccccc21` [Compound 920], the Ki at ICE (Table 17) stood at 16 nM. Besides, the IC50 stood at 3000 nM in the assay on IL-1β, human whole blood (Homo sapiens, Table 17) and 2100 nM in assay [1] (Homo sapiens, PBMC, Table 17).
At ICE (Table 5), `O=C[C@H](CC(=O)O)NC(=O)[C@@H]1CCCN2C(=O)CC[C@H](NC(=O)OCc3ccccc3)C(=O)N12` [Compound 496] yielded a Ki of 16 nM. Besides, the IC50 stood at 6000 nM with IL-1β, human whole blood (setting [2]); 1600 nM in assay [1] (setting [3]); 1550 nM in assay [1] (setting [4]).
For the molecule `Nc1c(Cl)cc(C(=O)N[C@H]2CCC(=O)N3CCC[C@@H](C(=O)N[C@H](C=O)CC(=O)O)N3C2=O)cc1Cl` [Compound 482], on ICE (Table 5), the Ki is under 0.2 nM. Besides, the IC50 was determined as 260 nM with IL-1β, human whole blood (setting [3]); 380 nM in the assay with IL-1β, human whole blood (setting [2]); 340 nM in assay [1] (setting [4]).
As to `O=C[C@H](CC(=O)O)NC(=O)[C@@H]1CCCN2C(=O)CCN(NC(=O)CCc3ccccc3)C(=O)N12` [Compound 1105], at ICE (Table 17), the Ki amounted to 250 nM. Besides, the IC50 was 3000 nM in the assay with IL-1β, human whole blood (Homo sapiens, Table 17) and 3500 nM in assay [1] (Homo sapiens, PBMC, Table 17).
On to `O=C[C@H](CC(=O)O)NC(=O)[C@@H]1CCCN2C(=O)CC[C@H](NC(=O)c3ccc(OCc4ccccc4)cc3)C(=O)N12` [Compound 499], for which the affinity on ICE (Table 5) corresponds to a Ki of 3.5 nM. Moreover, the IC50 was 9000 nM in the assay with IL-1β, human whole blood (setting [2]); 800 nM in assay [1] (setting [3]); 1200 nM in assay [1] (setting [4]).
`CC(=O)Nc1ccc(C(=O)N[C@H]2CN(C(=O)CO)c3ccccc3N(CC(=O)N[C@H](C=O)CC(=O)O)C2=O)cc1` [Compound 911] showed a Ki on ICE (Table 17) of 9 nM. Further, the IC50 was determined as 1900 nM in the assay on IL-1β, human whole blood (Homo sapiens, Table 17) and 3500 nM in assay [1] (Homo sapiens, PBMC, Table 17).
On the same counts, the results for `O=C[C@H](CC(=O)O)NC(=O)[C@@H]1CCCN2C(=O)CC[C@H](NC(=O)c3cc(Cl)cc(Cl)c3)C(=O)N12` [Compound 214j, [3S(1S,9S)]3-(9-(3,5-Dichlorobenzoyl)amino-6,10-dioxo-1,2,3,4,7,8,9,10-octahydro-6H-pyridazino[1,2-a][1,2]diazepine-1-carboxamido)-4-oxobutanoic acid] are 4.2 nM, 6000 nM and 2500 nM.
Consider `O=C[C@H](CC(=O)O)NC(=O)[C@@H]1CCCN2C(=O)CC[C@H](NC(=O)/C=C/c3ccccc3)C(=O)N12` [Compound 494], for which the Ki on ICE (Table 5) came to 15 nM. The IC50 in the assay on IL-1β, human whole blood (setting [2]) amounted to 7000 nM; in assay [1] (setting [3]) it was 1500 nM; in assay [1] (setting [4]), 1350 nM.
At ICE (Table 5), `COc1ccccc1C(=O)N[C@H]1CCC(=O)N2CCC[C@@H](C(=O)N[C@H](C=O)CC(=O)O)N2C1=O` [Compound 405] yielded a Ki of 6.5 nM. Moreover, the IC50 amounted to 2100 nM in the assay on IL-1β, human whole blood (setting [2]) and 1700 nM in assay [1] (setting [4]).
On the same counts, the results for `CC(=O)Nc1ccc(C(=O)N[C@H]2CN(C(C)=O)c3ccccc3N(CC(=O)N[C@H](C=O)CC(=O)O)C2=O)cc1` [Compound 627] are 43 nM, 8000 nM and 3250 nM.
On the same counts, the results for `O=C[C@H](CC(=O)O)NC(=O)[C@@H]1CCCN2C(=O)CC[C@H](NC(=O)c3ccccc3Cl)C(=O)N12` [Compound 406] are 4 nM, 2300 nM and 1650 nM.
On the same counts, the results for `Nc1ccc(C(=O)N[C@H]2CCC(=O)N3CCC[C@@H](C(=O)N[C@H](C=O)CC(=O)O)N3C2=O)cc1` [Compound 431] are 8 nM, 8000 nM and over 8000 nM.
As for `O=C[C@H](CC(=O)O)NC(=O)[C@@H]1CCCN2C(=O)CC[C@H](NC(=O)c3cc4ccccc4s3)C(=O)N12` [Compound 453], at ICE (Table 5), the affinity, expressed as Ki, was 0.65 nM. Also, the IC50 in the assay on IL-1β, human whole blood (setting [3]) came out at 1600 nM; with IL-1β, human whole blood (setting [2]) it was 1900 nM; in assay [1] (setting [4]), 1300 nM.
As for `O=C[C@H](CC(=O)O)NC(=O)[C@@H]1CCCN2C(=O)CC[C@H](NC(=O)c3ccc4ccccc4n3)C(=O)N12` [Compound 411], the Ki at ICE (Table 5) turned out to be 0.9 nM. Besides, the IC50 in the assay with IL-1β, human whole blood (setting [2]) came to 1900 nM; in assay [1] (setting [4]) it was 540 nM.
On the same counts, the results for `Cc1cc(C(=O)N[C@H]2CCC(=O)N3CCC[C@@H](C(=O)N[C@H](C=O)CC(=O)O)N3C2=O)no1` [Compound 424] are 45 nM, 4000 nM and 2500 nM.
In turn, `COc1ccccc1C(=O)C(=O)N[C@H]1CN(C(C)=O)c2ccccc2N(CC(=O)N[C@H](C=O)CC(=O)O)C1=O` [Compound 705] came in with a Ki at ICE (Table 17) of 5 nM. The IC50 in the assay with IL-1β, human whole blood (Homo sapiens, Table 17) was 3200 nM; in assay [1] (Homo sapiens, PBMC, Table 17) it was 2300 nM.
On the same counts, the results for `O=C[C@H](CC(=O)O)NC(=O)[C@@H]1CCCN2C(=O)CC[C@H](NC(=O)C(=O)Nc3ccc(Cl)cc3)C(=O)N12` [Compound 500] are 25 nM, 1800 nM and 1800 nM.
On the same counts, the results for `COc1c(Cl)cc(C(=O)NN2CCC(=O)N3CCC[C@@H](C(=O)N[C@H](C=O)CC(=O)O)N3C2=O)cc1Cl` [Compound 1125] are 55 nM, 9000 nM and 2300 nM.
In turn, `Cc1cc(C)c(C(=O)C(=O)NN2CCC(=O)N3CCC[C@@H](C(=O)N[C@H](C=O)CC(=O)O)N3C2=O)c(C)c1` [Compound 1117] showed a Ki on ICE (Table 17) of 35 nM. The IC50 in the assay on IL-1β, human whole blood (Homo sapiens, Table 17) is 1300 nM; in assay [1] (Homo sapiens, PBMC, Table 17), 1700 nM.
